# Measurements as given in US20230277630A1, “METHODS AND COMPOSITIONS FOR TREATING AMYOTROPHIC LATERAL SCLEROSIS” (Amylyx Pharmaceuticals, Inc., priority 2022, published 2023).
# Read-outs that look alike come from different tables or passages of the source.
# Experiments:
# [1] = molecular target: T1, human liver microsomes (HLM) (Homo sapiens, UniProt P10635); test: CYP reaction phenotyping using HLM and chemical inhibitors (% remaining); assay type: in vitro ADME; details: human, microsomes, 5 μM, pH 7.4
# T1 construct: from tissue; host or cells: pooled human liver microsomes
# Excerpt: (§1) % Remaining of TA=100×At/A0
# (§2) Where, At and A0 are the peak area ratio of TA to IS at time t and at time zero, respectively.
# [2] = molecular target: T2, human liver microsomes (HLM) (Homo sapiens, UniProt P05177); test: as above; assay type: in vitro ADME; details: human, microsomes, 5 μM, pH 7.4
# T2 construct: from tissue; host or cells: pooled human liver microsomes
# T2 sequence (P05177 1-516): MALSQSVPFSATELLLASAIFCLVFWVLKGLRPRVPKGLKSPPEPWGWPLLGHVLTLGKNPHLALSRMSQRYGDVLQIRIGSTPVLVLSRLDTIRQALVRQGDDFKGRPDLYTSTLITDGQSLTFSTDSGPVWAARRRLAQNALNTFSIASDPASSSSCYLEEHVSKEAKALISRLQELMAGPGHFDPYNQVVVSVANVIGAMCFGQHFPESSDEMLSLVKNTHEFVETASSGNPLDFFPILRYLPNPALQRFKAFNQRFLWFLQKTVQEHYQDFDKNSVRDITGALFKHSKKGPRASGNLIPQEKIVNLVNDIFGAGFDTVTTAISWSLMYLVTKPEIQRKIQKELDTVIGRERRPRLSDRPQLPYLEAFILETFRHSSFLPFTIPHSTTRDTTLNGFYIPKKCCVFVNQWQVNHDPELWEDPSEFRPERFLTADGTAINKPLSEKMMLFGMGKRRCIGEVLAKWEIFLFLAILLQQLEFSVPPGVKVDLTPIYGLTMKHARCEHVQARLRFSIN
# Excerpt: as §1, §2
# [3] = system: human liver microsomes (HLM); test: as above; assay type: in vitro ADME; details: human, microsomes, 5 μM, pH 7.4
# Excerpt: as §1, §2
# [4] = molecular target: T3, human liver microsomes (HLM) (Homo sapiens, UniProt P33261); test: as above; assay type: in vitro ADME
# T3 construct: from tissue; host or cells: pooled human liver microsomes
# Excerpt: as §1, §2
# [5] = molecular target: T4, human liver microsomes (HLM) (Homo sapiens, UniProt P11712); test: as above; assay type: in vitro ADME; details: human, microsomes, 5 μM, pH 7.4
# T4 construct: from tissue; host or cells: pooled human liver microsomes
# Excerpt: as §1, §2
# OATP1B3 = molecular target: T5, OATP1B3 (Homo sapiens, UniProt Q9NPD5)
# T5 sequence (Q9NPD5 1-702): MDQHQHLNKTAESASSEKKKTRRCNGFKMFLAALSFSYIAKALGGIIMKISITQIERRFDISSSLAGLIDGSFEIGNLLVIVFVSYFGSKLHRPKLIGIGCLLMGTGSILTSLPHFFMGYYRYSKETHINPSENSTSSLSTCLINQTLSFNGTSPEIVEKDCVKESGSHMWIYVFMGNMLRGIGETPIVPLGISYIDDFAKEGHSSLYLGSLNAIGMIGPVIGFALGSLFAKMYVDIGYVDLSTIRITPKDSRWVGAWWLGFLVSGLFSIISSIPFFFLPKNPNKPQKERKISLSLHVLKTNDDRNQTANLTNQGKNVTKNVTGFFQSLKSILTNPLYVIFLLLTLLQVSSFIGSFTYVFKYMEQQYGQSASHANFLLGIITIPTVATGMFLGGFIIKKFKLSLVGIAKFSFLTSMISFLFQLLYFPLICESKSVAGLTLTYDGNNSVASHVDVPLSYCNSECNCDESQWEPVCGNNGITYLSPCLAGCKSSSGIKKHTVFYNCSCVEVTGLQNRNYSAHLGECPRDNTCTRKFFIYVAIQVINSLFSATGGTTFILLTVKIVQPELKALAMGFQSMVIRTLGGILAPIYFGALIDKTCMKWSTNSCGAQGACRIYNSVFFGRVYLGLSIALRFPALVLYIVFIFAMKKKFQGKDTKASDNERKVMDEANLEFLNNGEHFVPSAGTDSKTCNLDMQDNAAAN
# MATE2K = MATE2K (Homo sapiens, UniProt Q86VL8)
# [6] = set-up: species or system male Sprague Dawley rats; details: rat, in vivo
# Method: Total urine recovery data for Tenofovir, TDF, and PB was calculated for the 24 hour collection period on Days 1 and 5. […] The reported urine recovery data included amount recovered (ng) and percent recovered (%) for […]. Individual and mean Tenofovir, TDF, and PB urine recovery data were presented with SD, reported to three significant figures, and CV %, reported to one decimal place.
# hrCYP3A4 = hrCYP3A4 (Homo sapiens, UniProt P08684); details: recombinant enzyme, 5 μM, pH 7.4
# Method: (§3) The reaction was initiated by the addition of NADPH, followed by incubation at 37° C.
# as §1
# (§4) Where, At is the peak area ratio of TA to internal standard (IS) at time t, A0 is the average peak area ratio of TA to IS at time zero.
# hrCYP2D6 = hrCYP2D6 (Homo sapiens, UniProt P10635); details: recombinant enzyme, 5 μM, pH 7.4
# Method: as §3, §1, §4
# [7] = human, microsomes, 0 h, 5 μM, pH 7.4
# [8] = human, microsomes, 5 min, 5 μM, pH 7.4
# [9] = human, microsomes, 20 min, 5 μM, pH 7.4
# [10] = human, microsomes, 1 h, 5 μM, pH 7.4
# T1 sequence (P10635 whole entry): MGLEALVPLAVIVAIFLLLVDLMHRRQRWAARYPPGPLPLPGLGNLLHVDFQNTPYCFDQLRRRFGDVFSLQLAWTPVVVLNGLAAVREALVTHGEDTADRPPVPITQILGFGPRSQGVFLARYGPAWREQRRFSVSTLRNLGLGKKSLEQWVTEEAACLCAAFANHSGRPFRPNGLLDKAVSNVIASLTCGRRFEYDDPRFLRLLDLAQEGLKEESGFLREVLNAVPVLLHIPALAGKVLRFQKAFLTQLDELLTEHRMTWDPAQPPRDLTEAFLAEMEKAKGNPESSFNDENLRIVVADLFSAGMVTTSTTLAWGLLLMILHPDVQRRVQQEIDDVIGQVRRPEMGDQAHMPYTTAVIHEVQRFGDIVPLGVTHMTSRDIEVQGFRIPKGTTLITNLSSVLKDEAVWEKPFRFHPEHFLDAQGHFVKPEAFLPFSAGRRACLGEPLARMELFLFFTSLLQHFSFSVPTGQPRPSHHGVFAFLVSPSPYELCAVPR
# Chain of hrCYP2D6 (P10635 whole entry): as above
# Chain of hrCYP3A4 (P08684 whole entry): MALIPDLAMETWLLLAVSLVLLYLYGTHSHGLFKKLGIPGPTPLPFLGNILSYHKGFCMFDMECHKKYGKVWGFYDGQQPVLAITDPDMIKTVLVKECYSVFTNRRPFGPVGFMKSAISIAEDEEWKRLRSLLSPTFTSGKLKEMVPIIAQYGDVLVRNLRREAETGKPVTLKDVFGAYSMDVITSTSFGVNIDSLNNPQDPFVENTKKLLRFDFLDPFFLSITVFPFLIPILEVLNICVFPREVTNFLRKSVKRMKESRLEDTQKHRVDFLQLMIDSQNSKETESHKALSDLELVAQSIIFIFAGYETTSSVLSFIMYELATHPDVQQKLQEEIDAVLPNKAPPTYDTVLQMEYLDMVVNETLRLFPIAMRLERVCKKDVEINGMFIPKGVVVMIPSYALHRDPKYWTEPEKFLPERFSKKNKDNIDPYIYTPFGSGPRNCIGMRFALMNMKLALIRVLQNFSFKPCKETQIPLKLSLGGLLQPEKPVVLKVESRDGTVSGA
# T3 sequence (P33261 whole entry): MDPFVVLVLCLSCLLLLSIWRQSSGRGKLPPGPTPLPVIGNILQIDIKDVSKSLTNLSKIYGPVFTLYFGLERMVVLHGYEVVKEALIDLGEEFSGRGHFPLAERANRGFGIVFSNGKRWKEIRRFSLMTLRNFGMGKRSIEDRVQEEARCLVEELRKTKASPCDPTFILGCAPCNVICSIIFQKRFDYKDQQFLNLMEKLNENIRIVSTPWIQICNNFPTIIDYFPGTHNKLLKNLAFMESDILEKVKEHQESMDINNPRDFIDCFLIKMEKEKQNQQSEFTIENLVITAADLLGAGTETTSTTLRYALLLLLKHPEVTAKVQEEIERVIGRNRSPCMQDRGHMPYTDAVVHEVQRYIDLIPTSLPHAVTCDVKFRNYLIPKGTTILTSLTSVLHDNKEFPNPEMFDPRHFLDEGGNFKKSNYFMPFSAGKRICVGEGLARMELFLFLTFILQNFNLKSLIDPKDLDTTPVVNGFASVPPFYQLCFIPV
# T4 sequence (P11712 whole entry): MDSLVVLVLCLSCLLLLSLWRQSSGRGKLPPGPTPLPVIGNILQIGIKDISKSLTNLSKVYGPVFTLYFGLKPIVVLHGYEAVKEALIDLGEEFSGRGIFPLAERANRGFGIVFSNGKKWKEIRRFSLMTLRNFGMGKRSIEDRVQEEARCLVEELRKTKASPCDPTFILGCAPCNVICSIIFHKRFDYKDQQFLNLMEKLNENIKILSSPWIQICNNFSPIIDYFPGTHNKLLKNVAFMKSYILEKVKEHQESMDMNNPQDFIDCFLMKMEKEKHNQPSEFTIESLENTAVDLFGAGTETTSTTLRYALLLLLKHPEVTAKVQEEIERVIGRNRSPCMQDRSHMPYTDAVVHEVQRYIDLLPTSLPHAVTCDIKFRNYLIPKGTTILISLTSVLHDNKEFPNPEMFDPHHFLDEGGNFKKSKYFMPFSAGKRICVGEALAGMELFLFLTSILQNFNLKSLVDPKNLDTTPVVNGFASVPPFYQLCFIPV
# Chain of MATE2K (Q86VL8 1-566 isoform Q86VL8-3): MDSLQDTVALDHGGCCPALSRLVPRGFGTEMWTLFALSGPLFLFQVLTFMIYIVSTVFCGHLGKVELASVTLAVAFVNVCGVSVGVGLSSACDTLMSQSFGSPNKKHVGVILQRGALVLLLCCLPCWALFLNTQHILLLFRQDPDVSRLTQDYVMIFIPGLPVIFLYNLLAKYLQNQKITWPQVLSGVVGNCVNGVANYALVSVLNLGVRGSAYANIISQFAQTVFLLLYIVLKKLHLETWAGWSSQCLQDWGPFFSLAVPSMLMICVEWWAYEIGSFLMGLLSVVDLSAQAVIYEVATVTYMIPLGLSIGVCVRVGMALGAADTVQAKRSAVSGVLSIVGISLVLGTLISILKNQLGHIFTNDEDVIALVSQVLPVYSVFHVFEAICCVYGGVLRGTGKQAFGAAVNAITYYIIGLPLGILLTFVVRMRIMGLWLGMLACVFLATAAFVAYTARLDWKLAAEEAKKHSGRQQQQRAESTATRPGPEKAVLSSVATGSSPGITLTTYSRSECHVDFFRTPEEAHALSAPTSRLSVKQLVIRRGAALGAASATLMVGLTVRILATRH
smiles,measurement,setting,value
"C[C@H](CCC(=O)NCCS(=O)(=O)O)[C@H]1CC[C@H]2[C@@H]3[C@@H](O)C[C@@H]4C[C@H](O)CC[C@]4(C)[C@H]3CC[C@]12C [TUDCA, tauroursodeoxycholic acid]",% Remaining of TA (n = 3) Average,[1]; 0 h,100%
same,% Remaining of TA (n = 3) Average,[1]; 5 min,101%
same,% Remaining of TA (n = 3) Average,[1]; 10 min,110%
same,% Remaining of TA (n = 3) Average,[1]; 20 min,99.7%
same,% Remaining of TA (n = 3) Average,[1]; 0.5 h,101%
same,% Remaining of TA (n = 3) Average,[1]; 1 h,87.2%
same,% Remaining of TA (n = 3) Average,[2]; 0 h,100%
same,% Remaining of TA (n = 3) Average,[2]; 5 min,123%
same,% Remaining of TA (n = 3) Average,[2]; 10 min,123%
same,% Remaining of TA (n = 3) Average,[2]; 20 min,121%
same,% Remaining of TA (n = 3) Average,[2]; 0.5 h,120%
same,% Remaining of TA (n = 3) Average,[2]; 1 h,128%
same,% Remaining of TA (n = 3) Average,[3]; 0 h,100%
same,% Remaining of TA (n = 3) Average,[4]; [7],100%
same,% Remaining of TA (n = 3) Average,[4]; [8],106%
same,% Remaining of TA (n = 3) Average,"[4]; human, microsomes, 10 min, 5 μM, pH 7.4",93.0%
same,% Remaining of TA (n = 3) Average,[4]; [9],93.1%
same,% Remaining of TA (n = 3) Average,[4]; [10],94.5%
same,% Remaining of TA (n = 3) Average,"[4]; reversible incubation condition, CYP2C19 (+NADPH, +N3B), 30 min",92.1%
same,% Remaining of TA (n = 3) Average,[5]; 0 h,100%
same,% Remaining of TA (n = 3) Average,[5]; 5 min,102%
same,% Remaining of TA (n = 3) Average,[5]; 10 min,96.9%
same,% Remaining of TA (n = 3) Average,[5]; 20 min,92.8%
same,% Remaining of TA (n = 3) Average,[5]; 0.5 h,95.0%
same,% Remaining of TA (n = 3) Average,[5]; 1 h,95.3%
same,IC50,OATP1B3,38.7 to 116 µM
same,IC50,MATE2K,> 810 µM
same,detection in urine,[6],not detected in any urine samples
same,% Remaining of TA,hrCYP3A4; 0 h,100%
same,% Remaining of TA,hrCYP3A4; 5 min,97.1%
same,% Remaining of TA,hrCYP3A4; 10 min,92.1%
same,% Remaining of TA,hrCYP3A4; 20 min,91.4%
same,% Remaining of TA,hrCYP3A4; 0.5 h,90.9%
same,% Remaining of TA,hrCYP3A4; 1 h,91.1%
same,% remained after 60 minutes of incubation,hrCYP3A4; 1 h,greater than 90%
same,% Remaining of TA,hrCYP2D6; 0 h,100%
same,% Remaining of TA,hrCYP2D6; 5 min,98.4%
same,% Remaining of TA,hrCYP2D6; 10 min,97.8%
same,% Remaining of TA,hrCYP2D6; 20 min,97.0%
same,% Remaining of TA,hrCYP2D6; 0.5 h,99.2%
same,% Remaining of TA,hrCYP2D6; 1 h,98.6%
same,% remained after 60 minutes of incubation,hrCYP2D6; 1 h,greater than 90%
"O=C(O)CCCc1ccccc1 [PB, sodium phenylbutyrate]",% Remaining of TA (n = 3) Average,[1]; 0 h,100%
same,% Remaining of TA (n = 3) Average,[1]; 20 min,97.5%
same,% Remaining of TA (n = 3) Average,[1]; 1 h,98.8%
same,% Remaining of TA (n = 3) Average,[2]; 0 h,100%
same,% Remaining of TA (n = 3) Average,[2]; 5 min,116%
same,% Remaining of TA (n = 3) Average,[2]; 10 min,131%
same,% Remaining of TA (n = 3) Average,[2]; 20 min,125%
same,% Remaining of TA (n = 3) Average,[2]; 0.5 h,127%
same,% Remaining of TA (n = 3) Average,[2]; 1 h,128%
same,% Remaining of TA (n = 3) Average,[3]; 5 min,109%
same,% Remaining of TA (n = 3) Average,[3]; 20 min,113%
same,% Remaining of TA (n = 3) Average,[4]; [7],100%
same,% Remaining of TA (n = 3) Average,[4]; [8],101%
same,% Remaining of TA (n = 3) Average,[4]; [9],101%
same,% Remaining of TA (n = 3) Average,"[4]; human, microsomes, 0.5 h, 5 μM, pH 7.4",101%
same,% Remaining of TA (n = 3) Average,[4]; [10],101%
same,% Remaining of TA (n = 3) Average,[5]; 0 h,100%
same,% Remaining of TA (n = 3) Average,[5]; 5 min,103%
same,% Remaining of TA (n = 3) Average,[5]; 20 min,98.5%
same,% Remaining of TA (n = 3) Average,[5]; 0.5 h,99.6%
same,% Remaining of TA (n = 3) Average,[5]; 1 h,97.6%
same,IC50,OATP1B3,3630 to 10900 µM
same,IC50,MATE2K,> 73900 µM
same,Urine concentrations,"[6]; male, Sprague Dawley, po","Urine concentrations for PB analysis in all animals on Day 1, for TUDCA analysis in all animals on Days 1 and 5, and for TDF analysis in two animals on Day 1 and one animal on Day 5 were BLQ (<20 ng/mL) so no recovery data was calculated."
same,% Remaining of TA,hrCYP3A4; 0 h,100%
same,% Remaining of TA,hrCYP3A4; 5 min,100%
same,% Remaining of TA,hrCYP3A4; 10 min,97.9%
same,% Remaining of TA,hrCYP3A4; 20 min,100%
same,% Remaining of TA,hrCYP3A4; 0.5 h,98.1%
same,% remained after 60 minutes of incubation,hrCYP3A4; 1 h,greater than 90%
same,% Remaining of TA,hrCYP2D6; 0 h,100%
same,% Remaining of TA,hrCYP2D6; 5 min,99.9%
same,% Remaining of TA,hrCYP2D6; 10 min,96.7%
same,% Remaining of TA,hrCYP2D6; 20 min,97.6%
same,% Remaining of TA,hrCYP2D6; 0.5 h,101%
same,% Remaining of TA,hrCYP2D6; 1 h,100%
same,% remained after 60 minutes of incubation,hrCYP2D6; 1 h,greater than 90%
